{"source": "the OligoGym collection", "note": "HELM strings list units from the 5' end as sugar, base in round brackets, then linkage (d deoxyribose, r ribose, m 2'-O-methyl, p phosphodiester). Strings are as the collection lists them; they lack the last nucleoside at the 3' end of the tested compound. [moe] = 2'-O-(2-methoxyethyl) (MOE); [sp] = phosphorothioate linkage; [m5C] = 5-methylcytosine"}
{"target": "ATXN2", "test": "mouse, dose not given", "conditions": "ASO", "units": {"3 h FOB score": "score 0-7"}}
{"substance": "RNA1{[moe](G)[sp].[moe](T)p.[moe](A)p.[moe]([m5C])p.[moe](A)p.d([m5C])[sp].d(A)[sp].d(G)[sp].d(T)[sp].d(T)[sp].d(T)[sp].d([m5C])[sp].d(A)[sp].d([m5C])[sp].d(T)[sp].[moe](A)p.[moe](G)p.[moe](G)[sp].[moe](T)}$$$$ (last 3' nucleoside missing)", "3 h FOB score": 3}
{"substance": "RNA1{[moe](G)[sp].[moe](T)p.[moe](A)p.[moe]([m5C])p.[moe](T)[sp].d(T)[sp].d(T)[sp].d(T)[sp].d([m5C])[sp].d(T)[sp].d([m5C])[sp].d(A)[sp].d(T)[sp].[moe](G)p.[moe](T)p.[moe](G)[sp].[moe]([m5C])}$$$$ (last 3' nucleoside missing)", "3 h FOB score": 1.25}
{"substance": "RNA1{[moe](G)[sp].[moe](T)p.[moe](A)p.[moe]([m5C])p.[moe](T)[sp].d(T)[sp].d([m5C])[sp].d(A)[sp].d([m5C])[sp].d(A)[sp].d(T)[sp].d(T)[sp].d(T)[sp].[moe](G)p.[moe](G)p.[moe](A)[sp].[moe](G)}$$$$ (last 3' nucleoside missing)", "3 h FOB score": 1}
{"substance": "RNA1{[moe](G)[sp].[moe](T)p.[moe](A)p.[moe]([m5C])p.[moe](T)p.d(T)[sp].d(T)[sp].d(T)[sp].d([m5C])[sp].d(T)[sp].d([m5C])[sp].d(A)[sp].d(T)[sp].d(G)[sp].d(T)[sp].[moe](G)p.[moe]([m5C])p.[moe](G)[sp].[moe](G)}$$$$ (last 3' nucleoside missing)", "3 h FOB score": 1}
{"substance": "RNA1{[moe](G)[sp].[moe](T)p.[moe](A)p.[moe]([m5C])p.[moe](T)p.d(T)[sp].d([m5C])[sp].d(A)[sp].d([m5C])[sp].d(A)[sp].d(T)[sp].d(T)[sp].d(T)[sp].d(G)[sp].d(G)[sp].[moe](A)p.[moe](G)p.[moe]([m5C])[sp].[moe]([m5C])}$$$$ (last 3' nucleoside missing)", "3 h FOB score": 1}
{"substance": "RNA1{[moe](G)[sp].[moe](T)p.[moe](G)p.[moe](A)p.[moe](G)p.d(T)[sp].d(T)[sp].d([m5C])[sp].d(A)[sp].d([m5C])[sp].d([m5C])[sp].d(T)[sp].d(G)[sp].d([m5C])[sp].d(A)[sp].[moe](T)p.[moe]([m5C])p.[moe]([m5C])[sp].[moe]([m5C])}$$$$ (last 3' nucleoside missing)", "3 h FOB score": 2.25}
{"substance": "RNA1{[moe](G)[sp].[moe](T)p.[moe](G)p.[moe](A)p.[moe](T)p.[moe](G)p.d(T)[sp].d(T)[sp].d(T)[sp].d([m5C])[sp].d(A)[sp].d(T)[sp].d(T)[sp].d(G)[sp].d(G)[sp].d(G)[sp].[moe](T)p.[moe](T)[sp].[moe](T)}$$$$ (last 3' nucleoside missing)", "3 h FOB score": 4}
{"substance": "RNA1{[moe](G)[sp].[moe](T)p.[moe](G)p.[moe](A)p.[moe](T)p.d(G)[sp].d(T)[sp].d(T)[sp].d(T)[sp].d([m5C])[sp].d(A)[sp].d(T)[sp].d(T)[sp].d(G)[sp].d(G)[sp].[moe](G)p.[moe](T)p.[moe](T)[sp].[moe](T)}$$$$ (last 3' nucleoside missing)", "3 h FOB score": 4.5}
{"substance": "RNA1{[moe](G)[sp].[moe](T)p.[moe](G)p.[moe](A)p.d(T)[sp].d(G)[sp].d(T)[sp].d(T)[sp].d(T)[sp].d([m5C])[sp].d(A)[sp].d(T)[sp].d(T)[sp].d(G)[sp].[moe](G)p.[moe](G)p.[moe](T)p.[moe](T)[sp].[moe](T)}$$$$ (last 3' nucleoside missing)", "3 h FOB score": 6}
{"substance": "RNA1{[moe](G)[sp].[moe](T)p.[moe](G)p.[moe](G)p.[moe](T)[sp].d(G)[sp].d(T)[sp].d(G)[sp].d([m5C])[sp].d(G)[sp].d([m5C])[sp].d(A)[sp].d(T)[sp].[moe](G)p.[moe](T)p.[moe](A)[sp].[moe](G)}$$$$ (last 3' nucleoside missing)", "3 h FOB score": 6.75}
{"substance": "RNA1{[moe](G)[sp].[moe](T)p.[moe](G)p.[moe](G)p.[moe](T)p.d(G)[sp].d(G)[sp].d(T)[sp].d(G)[sp].d(T)[sp].d(G)[sp].d([m5C])[sp].d(G)[sp].d([m5C])[sp].d(A)[sp].[moe](T)p.[moe](G)p.[moe](T)[sp].[moe](A)}$$$$ (last 3' nucleoside missing)", "3 h FOB score": 7}
{"substance": "RNA1{[moe](G)[sp].[moe](T)p.[moe](G)p.[moe](G)p.[moe](T)p.d(G)[sp].d(T)[sp].d(G)[sp].d([m5C])[sp].d(G)[sp].d([m5C])[sp].d(A)[sp].d(T)[sp].d(G)[sp].d(T)[sp].[moe](A)p.[moe](G)p.[moe](A)[sp].[moe]([m5C])}$$$$ (last 3' nucleoside missing)", "3 h FOB score": 5.5}
{"substance": "RNA1{[moe](G)[sp].[moe](T)p.[moe](G)p.[moe](G)p.[moe]([m5C])p.d(T)[sp].d(T)[sp].d(T)[sp].d(A)[sp].d(A)[sp].d(A)[sp].d(A)[sp].d(A)[sp].d([m5C])[sp].d(T)[sp].[moe](A)p.[moe](G)p.[moe](G)[sp].[moe](T)}$$$$ (last 3' nucleoside missing)", "3 h FOB score": 0}
{"substance": "RNA1{[moe](G)[sp].[moe](T)p.[moe](G)p.[moe](T)p.[moe](T)p.d(G)[sp].d([m5C])[sp].d(A)[sp].d([m5C])[sp].d(A)[sp].d(T)[sp].d(A)[sp].d(G)[sp].d(G)[sp].d(T)[sp].[moe](T)p.[moe](A)p.[moe](G)[sp].[moe](A)}$$$$ (last 3' nucleoside missing)", "3 h FOB score": 6.5}
{"substance": "RNA1{[moe](G)[sp].[moe](T)p.[moe](G)p.[moe](T)p.[moe](T)p.d(T)[sp].d(A)[sp].d(A)[sp].d(T)[sp].d(T)[sp].d(T)[sp].d(G)[sp].d(T)[sp].d(A)[sp].d(A)[sp].[moe]([m5C])p.[moe](T)p.[moe](A)[sp].[moe](G)}$$$$ (last 3' nucleoside missing)", "3 h FOB score": 4}
{"substance": "RNA1{[moe](G)[sp].[moe](T)p.[moe](G)p.[moe](T)p.[moe](T)p.d(T)[sp].d(G)[sp].d(G)[sp].d(G)[sp].d(A)[sp].d(T)[sp].d(G)[sp].d([m5C])[sp].d(T)[sp].d(T)[sp].[moe]([m5C])p.[moe](A)p.[moe](G)[sp].[moe](A)}$$$$ (last 3' nucleoside missing)", "3 h FOB score": 5.5}
{"substance": "RNA1{[moe](G)[sp].[moe](T)p.[moe](G)p.[moe](T)p.[moe](T)p.d([m5C])[sp].d(A)[sp].d(G)[sp].d(T)[sp].d(A)[sp].d(T)[sp].d(A)[sp].d(G)[sp].d(A)[sp].d(T)[sp].[moe](T)p.[moe](A)p.[moe](T)[sp].[moe]([m5C])}$$$$ (last 3' nucleoside missing)", "3 h FOB score": 3.75}
{"substance": "RNA1{[moe](G)[sp].[moe](T)p.[moe](G)p.[moe](T)p.[moe](T)p.d([m5C])[sp].d(A)[sp].d(T)[sp].d(G)[sp].d(A)[sp].d([m5C])[sp].d(T)[sp].d(T)[sp].d(T)[sp].d([m5C])[sp].[moe](A)p.[moe](A)p.[moe](G)[sp].[moe](G)}$$$$ (last 3' nucleoside missing)", "3 h FOB score": 3.5}
{"substance": "RNA1{[moe](G)[sp].[moe](T)p.[moe](T)p.[moe](A)p.[moe]([m5C])[sp].d(T)[sp].d(G)[sp].d(T)[sp].d(T)[sp].d(T)[sp].d([m5C])[sp].d(G)[sp].d(A)[sp].[moe]([m5C])p.[moe]([m5C])p.[moe](T)[sp].[moe]([m5C])}$$$$ (last 3' nucleoside missing)", "3 h FOB score": 6}
{"substance": "RNA1{[moe](G)[sp].[moe](T)p.[moe](T)p.[moe](A)p.[moe]([m5C])p.[moe](T)p.d(G)[sp].d(T)[sp].d(T)[sp].d(T)[sp].d([m5C])[sp].d(G)[sp].d(A)[sp].d([m5C])[sp].d([m5C])[sp].d(T)[sp].[moe]([m5C])p.[moe](T)[sp].[moe](G)}$$$$ (last 3' nucleoside missing)", "3 h FOB score": 5}
{"substance": "RNA1{[moe](G)[sp].[moe](T)p.[moe](T)p.[moe](A)p.[moe]([m5C])p.d(T)[sp].d(G)[sp].d(T)[sp].d(T)[sp].d(T)[sp].d([m5C])[sp].d(G)[sp].d(A)[sp].d([m5C])[sp].d([m5C])[sp].[moe](T)p.[moe]([m5C])p.[moe](G)[sp].[moe](G)}$$$$ (last 3' nucleoside missing)", "3 h FOB score": 4.5}
{"substance": "RNA1{[moe](G)[sp].[moe](T)p.[moe](T)p.[moe](A)p.[moe]([m5C])p.d(T)[sp].d(G)[sp].d(T)[sp].d(T)[sp].d(T)[sp].d([m5C])[sp].d(G)[sp].d(A)[sp].d([m5C])[sp].d([m5C])[sp].[moe](T)p.[moe]([m5C])p.[moe](T)[sp].[moe](G)}$$$$ (last 3' nucleoside missing)", "3 h FOB score": 6.5}
{"substance": "RNA1{[moe](G)[sp].[moe](T)p.[moe](T)p.[moe](A)p.d([m5C])[sp].d(T)[sp].d(G)[sp].d(T)[sp].d(T)[sp].d(T)[sp].d([m5C])[sp].d(G)[sp].d(A)[sp].d([m5C])[sp].[moe]([m5C])p.[moe](T)p.[moe]([m5C])p.[moe](T)[sp].[moe](G)}$$$$ (last 3' nucleoside missing)", "3 h FOB score": 6.5}
{"substance": "RNA1{[moe](G)[sp].[moe](T)p.[moe](T)p.[moe](G)p.[moe](T)p.d(T)[sp].d(G)[sp].d(T)[sp].d(T)[sp].d(T)[sp].d(A)[sp].d([m5C])[sp].d(A)[sp].d(T)[sp].d(T)[sp].[moe](A)p.[moe](T)p.[moe](T)[sp].[moe](A)}$$$$ (last 3' nucleoside missing)", "3 h FOB score": 0}
{"substance": "RNA1{[moe](G)[sp].[moe](T)p.[moe](T)p.[moe](G)p.[moe]([m5C])p.d(A)[sp].d([m5C])[sp].d(A)[sp].d(T)[sp].d(A)[sp].d(G)[sp].d(G)[sp].d(T)[sp].d(T)[sp].d(A)[sp].[moe](G)p.[moe](A)p.[moe](A)[sp].[moe](T)}$$$$ (last 3' nucleoside missing)", "3 h FOB score": 6}
{"substance": "RNA1{[moe](G)[sp].[moe](T)p.[moe](T)p.[moe](T)p.[moe](A)p.d(A)[sp].d(T)[sp].d(T)[sp].d(T)[sp].d(G)[sp].d(T)[sp].d(A)[sp].d(A)[sp].d([m5C])[sp].d(T)[sp].[moe](A)p.[moe](G)p.[moe](G)[sp].[moe](T)}$$$$ (last 3' nucleoside missing)", "3 h FOB score": 3.5}
{"substance": "RNA1{[moe](G)[sp].[moe](T)p.[moe](T)p.[moe](T)p.[moe](G)p.d(G)[sp].d(A)[sp].d(A)[sp].d(T)[sp].d([m5C])[sp].d(T)[sp].d(T)[sp].d(A)[sp].d(T)[sp].d(T)[sp].[moe](A)p.[moe](A)p.[moe](G)[sp].[moe]([m5C])}$$$$ (last 3' nucleoside missing)", "3 h FOB score": 1}
